Reference: paper PMC6057649, “Development of NanoLuc-PEST expressing Leishmania mexicana as a new drug discovery tool for axenic- and intramacrophage-based assays” (PLoS Neglected Tropical Diseases, 2018)
pEC50: −log10 of the molar value.

System: NanoLuc-PEST expressing L. mexicana axenic amastigotes
Assay: microbe, parasite or virus in culture
Format: cell-based
Conditions: for Relative Bioluminescence (%) / viability at 2 µM / viability at 10 µM: 72 hours, relative to DMSO only control, n = 4; for pEC50: hit compounds from the axenic amastigote screen, S3 Table, read-out: EC50, Axenic Amastigotes; for viability at 2 µM / viability at 10 µM: Leishmania mexicana, read-out: Relative Bioluminescence (%)

Row | Compound | Relative Bioluminescence (%) (2 µM compound) | Relative Bioluminescence (%) (10 µM compound) | pEC50 | viability at 2 µM (2 µM compound) | viability at 10 µM (10 µM compound)
1 | O=C(Nc1ccc(F)c(-c2nc3ncc(-c4ccccc4)cc3[nH]2)c1)N1CCCC1 [MMV688372] | 17.89% | 6.87% | – | – | –
2 | c1ccc(Oc2ccc(-c3cc(N4CCNCC4)[nH]n3)cc2)cc1 [MMV687706] | 85.99% | 75.35% | – | – | –
3 | CC(C)C(NC(=O)Cc1cccc2ccccc12)C(=O)Nc1cccc(C#N)c1 (centres unmarked) [MMV020591] | 87.56% | 94.51% | – | – | –
4 | CS(=O)(=O)c1ccc(C(=O)N(CC2CCCO2)c2nc3ccccc3s2)cc1[N+](=O)[O-] (centres unmarked) [MMV688761] | 39.52% | -1.44% | – | – | –
5 | COc1cccc(-n2nnnc2S(=O)(=O)Cc2ccccc2)c1 [MMV676388] | 0.56% | 0.16% | 6.14 | – | –
6 | Nc1ncc(-c2cn[nH]c2)cc1-c1nc2cc(Cl)cnc2[nH]1 [MMV023370] | 62.35% | 54.43% | – | – | –
7 | COc1cc(NC(=O)Cc2nn(C)c(=O)c3ccccc23)ccc1Cl [MMV676053] | 106.26% | 78.76% | – | – | –
8 | COc1ccc(C2=NCCN2)cc1-c1cn(-c2cccc(C3=NCCN3)c2)nn1 [MMV688547] | 85.85% | 128.07% | – | – | –
9 | CN1CCN(CCCOc2ncc(Nc3ncc(-c4ccc(C(F)(F)F)c(F)c4)nc3C(N)=O)cn2)CC1 [MMV687812] | 66.08% | 77.79% | – | – | –
10 | CC(C)NCC(=O)Nc1cccc(C(=O)Nc2cccc(C(F)(F)F)c2)c1 [MMV020165] | 63.67% | 61.89% | – | – | –
11 | COc1cccc(-c2nc3c(N4CCCC4)cccc3n2CC2CCCN2)n1 (centres unmarked) [MMV687703] | 48.25% | 76.96% | – | – | –
12 | Cc1ccc(NC(=O)c2cc(S(=O)(=O)NC(C)(C)C)ccc2C)nc1 [MMV020289] | 103.50% | 71.21% | – | – | –
13 | COc1ccc(-c2cncc3ccc(C(=O)NCCCn4ccnc4)nc23)cc1 [MMV020670] | 96.09% | 97.66% | – | – | –
14 | CC(C)(C)C(=O)N(CCCCCCN1C[C@H](O)[C@@H](O)[C@H](O)[C@H]1CO)C1CCCCCC1 [MMV688543] | 65.10% | 39.32% | – | – | –
15 | CC(C(=O)N1CCCC1)N1CCN(S(=O)(=O)c2ccc(C(C)(C)C)cc2)CC1 (centres unmarked) [MMV020291] | 117.25% | 111.14% | – | – | –
16 | O=C(C1CCN(c2cc(-n3cccc3)ncn2)CC1)N1CCc2ccccc2C1 [MMV687172] | 73.27% | 54.36% | – | – | –
17 | CS(=O)(=O)N1CCC(Cn2nc(Cc3cccc4ccccc34)c3c(N)ncnc32)CC1 [MMV676050] | 74.33% | 42.99% | – | – | –
18 | CN1CCN(c2nccc3nc(-c4ccc(F)c(F)c4)[nH]c23)CC1 [MMV676260] | 69.43% | 85.22% | – | – | –
19 | CC(C)C(C(=O)Nc1ccc(S(=O)(=O)N(C)C)cc1)c1ccc(Cl)cc1 (centres unmarked) [MMV020391] | 89.71% | 17.09% | – | – | –
20 | [H]/N=C(/N)N[C@H]1[C@H](O)[C@@H](O)[C@H](O[C@@H]2O[C@@H](C)[C@](O)(C=O)[C@H]2O[C@@H]2O[C@@H](CO)[C@H](O)[C@@H](O)[C@@H]2NC)[C@@H](N/C(N)=N\[H])[C@@H]1O [MMV688994, Streptomycin, reference compound] | – | – | – | 94% | 84.3%
21 | CN1CCC[C@@H]1CCO[C@](C)(c1ccccc1)c1ccc(Cl)cc1 [MMV637229, Clemastine, reference compound] | – | – | – | 47.3% | 11.2%

Row | Compound | Relative Bioluminescence (%) (2 µM compound) | Relative Bioluminescence (%) (10 µM compound) | pEC50 | viability at 2 µM (2 µM compound) | viability at 10 µM (10 µM compound)
22 | Cc1ccccc1CN1CCC(O)(c2ccc(Cl)c(C(F)(F)F)c2)CC1 [MMV688846] | 63.77% | 60.58% | – | – | –
23 | COc1ccc(-c2cnc3ccc(N4CCCC4)nn23)cc1OC [MMV023985] | 57.95% | 46.63% | – | – | –
24 | Cc1[nH]c2ccccc2c1C(c1cccs1)N1CCN(C)CC1 (centres unmarked) [MMV688768] | 75.96% | -1.33% | – | – | –
25 | Cc1ncc(-c2ccnc(Nc3ccc(S(C)(=O)=O)cc3)n2)n1C(C)C [MMV676604] | 81.35% | 33.57% | – | – | –
26 | Levofloxacin (-)-ofloxacin [MMV687798, reference compound] | 83.03% | 74.50% | – | – | –
27 | O=C(COc1cccc(F)c1)Nc1nc(-c2ccccn2)cs1 [MMV676409] | 37.25% | 12.84% | – | – | –
28 | CC1COC(Cn2cncn2)(c2ccc(Oc3ccc(Cl)cc3)cc2Cl)O1 (centres unmarked) [MMV688943, Difenoconazol] | 26.19% | 8.96% | – | – | –
29 | O=C(Nc1cccnc1)c1c(O)c2cccc3c2n(c1=O)CC3 [MMV676395] | 63.89% | 0.76% | – | – | –
30 | CCc1ccc([C@@H]2C[C@H](C(F)(F)F)n3ncc(C(=O)NCc4ccc(OC)cc4)c3N2)cc1 [MMV687180] | 49.23% | 1.44% | – | – | –
31 | COc1ccc(-c2cnc3cnc(-c4cccc(OC(C)C)c4)cn23)cc1 [MMV688270] | 58.63% | 51.88% | – | – | –
32 | Cc1ccc2c(c1C)NC(=O)C21NN=C(c2ccccc2)S1 (centres unmarked) [MMV019189] | -1.73% | -1.42% | 6.49 | – | –
33 | Cc1ccc(-c2cc(C(=O)Nc3cccnc3)c3cc(Br)ccc3n2)cc1 [MMV016838] | 44.83% | 13.69% | – | – | –
34 | Cc1cnc(N2CCN[C@@H](Cc3ccccc3)C2)nc1Oc1ccc(-n2ccnc2)cc1 [MMV687765] | 69.43% | 74.28% | – | – | –
35 | Cc1nn(C(=O)Nc2cccc(C(F)(F)F)c2)c(C)c1Sc1ncccn1 [MMV688552] | 71.00% | 47.85% | – | – | –
36 | CCCn1nnc(NC(=O)COc2ccc(C3CCCCC3)cc2)n1 [MMV676597] | 85.91% | 73.07% | – | – | –
37 | FC(F)(F)c1cccc(-c2nc3c(NCc4ccncc4)nccc3[nH]2)c1 [MMV032967] | 79.58% | 75.35% | – | – | –
38 | CCNC(=O)C(C)Nc1nc(-c2cccnc2)nc2sc(C)c(C)c12 (centres unmarked) [MMV1037162] | 83.26% | 85.96% | – | – | –
39 | COc1cncc(-c2cncc(N3CCN(c4ccncc4)CC3)n2)c1 [MMV085071] | 93.07% | 82.11% | – | – | –
40 | CC(=O)Nc1ccc(-c2noc(CC3CCCN(Cc4cccc(F)c4C)C3)n2)cc1 (centres unmarked) [MMV689061] | 77.60% | 95.91% | – | – | –
41 | CCOC(=O)NC(=O)c1ccsc1NC(=O)c1nc2ccccc2s1 [MMV090930] | 11.16% | -0.77% | – | – | –
42 | COc1cc(C2=NCCN2)cc2cc(-c3ccc(C4=NCCN4)cc3)oc12 [MMV688362] | 95.50% | 90.68% | – | – | –
